This is an account of results in paper PMC12037037 (Proceedings of the National Academy of Sciences of the …, 2025).

Experiment [1] addresses 5-HT2A receptor membrane preparations obtained from PSYLI2 cells (Homo sapiens, UniProt P28223). The experiment is described as follows: Ligand binding kinetics with [3H]-LSD on PSYLI2 membrane preparations. To be noted: kinetics of competition binding vs [3H]-LSD.
Method: Ligand binding kinetics at the 5-HT2AR.
Data represent the mean ± SEM of 2–3 biological replicates.
Data represent the mean ± SEM of 2–4 biological replicates.
Binding buffer consisted of 50 mM Tris HCl, 10 mM MgCl2, 0.1 mM EDTA disodium dihydrate in autoclaved
deionized water. The solution was adjusted to pH 7.4 with 10 M NaOH(aq) and stored at 4 °C. This solution was used in
membrane preparation generation as well as competition and kinetics assays.
free, see 15) were grown in 15-cm plates with Dulbecco’s Modified Eagle Media (DMEM) containing 10% fetal bovine serum and 1% penicillin/streptomycin. When the cells were >90% confluent, the media was removed, and the cells were washed
with Dulbecco’s Phosphate Buffered Saline (DPBS) (15 mL). Next, DMEM (15 mL) lacking fetal bovine serum and
penicillin/streptomycin was added, and the cells were serum-starved for 4–12 hours. Roughly 10 mL of the DMEM was
removed, leaving ~5 mL of media in the plates before placing them on ice. Once on ice, the plates were scraped and the
contents were transferred to a pre-chilled 50 mL Falcon tube and then centrifuged (2,000 g, 10 min, 4 °C). The supernatant […]
of 0.25 mL to use for quantification of protein concentration via a Bradford assay with a Coomassie protein assay reagent. […]
For association binding experiments, total and nonspecific binding was determined by adding binding buffer (2.5X solution, […]
The subject of experiment [2] is Thy1-EGFP mice, layer 2/3 of the mPFC. Description: In vivo spinogenesis after chronic corticosterone administration. To be noted: chronic CORT (20 mg/kg IP daily, 20 d) + VEH; GH VEH 12.17 ± 0.5278; mean ± SEM.
Method: In Vivo Spinogenesis after chronic corticosterone administration. Male and female Thy1-EGFP mice were given 1 week to acclimate to the new vivarium, then transferred to new cages (individually housed). Once individually housed, the mice were administered corticosterone (20 mg/kg; IP) in DMSO (2 mL/kg) or gently handled daily for 20 days. On day 21, mice were treated with VEH (saline) or (+)-JRT (1 mg/kg; IP). After 24 h, mice were anesthetized with isoflurane and transcardially perfused with paraformaldehyde (PFA, 4% in PBS, 7.4 pH). After extraction of the brains, samples were fixed in 4% PFA at 4° C overnight. The brains were cryo-protected by immersion in a 15% sucrose solution (15% sucrose in PBS w/v) overnight. Next, samples were placed in 30% sucrose solution (30% sucrose in PBS w/v) for at least 1 day. Samples were then embedded in optimal cutting temperature compound (OCT), sliced into 100 µm coronal sections using a cryostat, and mounted on slides which were left in the dark overnight to dry. Coverslips were mounted onto microscope slides using ProLong Gold. Slides were imaged on a Nikon HCA Spinning Disc confocal microscope equipped with a 100x/NA 1.45 oil objective. Images of dendrites and dendritic spines within layer 2/3 of the mPFC were captured and manually counted by a trained experimenter blinded to treatment conditions.
The test system of another experiment is C57BL/6J mice. The experiment is described as follows: Sucrose preference test (SPT) after chronic CORT. Type of experiment: in vivo. To be noted: after 20 d CORT 20 mg/kg IP; baseline 0.7980 ± 0.03533. As to the method:
remained housed in groups of three for the remainder of the study. All rats were acclimated to the colony room for up to one week prior to dosing. During the period of acclimation, rats were examined and handled daily, and weighed to assure adequate health and suitability. The room temperature was maintained between 20 °C and 23 °C with a relative humidity of 30%–70%. Lab Rodent Diet 5001 (W.F. Fisher, Cat # 11015) and water were provided ad libitum. Animals were randomly assigned across treatment groups. All testing was performed during the light phase of the light/dark cycle. Behavioral testing was conducted according to established protocols approved by the IACUC committee and PGI Standard Operation Procedures (SOP). […] All animals were carefully monitored to ensure their safety in the swim test and any animal unable to maintain a posture with its nose above water was immediately removed from the water and not used further in the study. […] This test lasted for 5 min and was video recorded. A blinded experimenter manually scored the videos for swimming, climbing, and immobility behavior. Scoring of the forced swim test was performed by trained technicians using a time sampling technique in which the animal in the video recorded test was viewed every 5 seconds and the behavior observed was noted (e.g., immobile, swimming, or climbing). […]

In experiment [3] the test system is E18 rat embryonic cortical neurons (DIV18-19). Description: Spinogenesis assay using cultured rat cortical neurons. Type of experiment: cell-based. The note with it: compound 1 μM.
Experiment [4] deals with 5-HT1B (h) (antagonist radioligand). Set-up: method as in ref Pharmacological Differentiation and Characterization of 5-HT1A, 5-HT1B, and 5-HT1C Binding Sites in Rat Frontal Cortex. The note with it: read-out: Ki of LSD; radioligand 5-HT; Rat cortex; ref Pharmacological Differentiation and Characterization of 5-HT1A, 5-HT1B, and 5-HT1C Binding Sites in Rat Frontal Cortex; cited from earlier work.

Experiment [5] addresses 5-HT2B (h) (agonist radioligand). To be noted: read-out: Ki of LSD; radioligand 5-HT; Human cloned; ref Pharmacological characterisation of the agonist radioligand binding site of 5-HT(2A), 5-HT(2B) and 5-HT(2C) receptors; cited from earlier work.
In experiment [6] the target is 5-HT5a (h) (agonist radioligand). The note with it: read-out: Ki of LSD, Rat cloned, ref Lysergamides of isomeric 2,4-dimethylazetidines map the binding orientation of the diethylamide moiety in the potent hallucinogenic agent N,N-diethyllysergamide (LSD); cited from earlier work.
Experiment [7] has as its target 5-HT7 (h) (agonist radioligand). Set-up: method as in Molecular biology of 5-HT receptors. To be noted: read-out: Ki of LSD; radioligand 5-HT; Rat cloned; ref Molecular biology of 5-HT receptors; cited from earlier work.
The target in experiment [8] is alpha 1 (non-selective) (antagonist radioligand). Set-up: method as in ref Receptor interaction profiles of novel N-2-methoxybenzyl (NBOMe) derivatives of 2,5-dimethoxy-substituted phenethylamines (2C drugs). The note with it: read-out: Ki of LSD; radioligand prazosin; Human cloned; ref Receptor interaction profiles of novel N-2-methoxybenzyl (NBOMe) derivatives of 2,5-dimethoxy-substituted phenethylamines (2C drugs); cited from earlier work.

The target of experiment [9] is alpha 2 (non-selective) (antagonist radioligand). Further details: method as in ref Receptor interaction profiles of novel N-2-methoxybenzyl (NBOMe) derivatives of 2,5-dimethoxy-substituted phenethylamines (2C drugs). To be noted: read-out: Ki of LSD; radioligand Rauwolscine; Human cloned; ref Receptor interaction profiles of novel N-2-methoxybenzyl (NBOMe) derivatives of 2,5-dimethoxy-substituted phenethylamines (2C drugs); cited from earlier work.

Experiment [10] deals with D1 (h) (antagonist radioligand). Set-up: method as in ref Mefloquine and psychotomimetics share neurotransmitter receptor and transporter interactions in vitro. To be noted: read-out: Ki of LSD; radioligand SCH 23390; Human cloned; ref Mefloquine and psychotomimetics share neurotransmitter receptor and transporter interactions in vitro; cited from earlier work.
The target in experiment [11] is D2S (h) (antagonist radioligand). Set-up: method as in ref Mefloquine and psychotomimetics share neurotransmitter receptor and transporter interactions in vitro. The note with it: read-out: Ki of LSD; radioligand [3H]YM-09151-2; Human cloned; ref Mefloquine and psychotomimetics share neurotransmitter receptor and transporter interactions in vitro; cited from earlier work.

For experiment [12], the target named is beta 1 (h) (agonist radioligand). The note with it: read-out: Ki of LSD; radioligand 125I-pindolol; Rat cloned; ref Lysergamides of isomeric 2,4-dimethylazetidines map the binding orientation of the diethylamide moiety in the potent hallucinogenic agent N,N-diethyllysergamide (LSD); cited from earlier work.

5-HT2A receptor membrane preparations obtained from PSYLI2 cells, sequence (P28223 1-263 limits assumed): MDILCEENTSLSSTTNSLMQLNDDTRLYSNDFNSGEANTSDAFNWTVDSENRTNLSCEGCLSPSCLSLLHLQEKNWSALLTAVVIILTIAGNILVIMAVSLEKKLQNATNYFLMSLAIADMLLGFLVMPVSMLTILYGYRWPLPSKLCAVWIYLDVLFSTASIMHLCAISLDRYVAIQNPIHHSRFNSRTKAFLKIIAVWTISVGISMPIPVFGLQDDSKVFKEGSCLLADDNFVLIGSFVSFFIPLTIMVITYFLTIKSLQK
5-HT2A receptor membrane preparations obtained from PSYLI2 cells, sequence (P28223 316-471 limits assumed): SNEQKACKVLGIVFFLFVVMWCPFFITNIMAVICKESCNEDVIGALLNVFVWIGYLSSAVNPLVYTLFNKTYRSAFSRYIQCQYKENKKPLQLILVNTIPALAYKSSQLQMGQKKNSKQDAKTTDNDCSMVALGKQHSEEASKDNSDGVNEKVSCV

Turning to `CCN(CC)CCc1c[nH]c2cc(F)ccc12` [6-F-DET, 6-fluoro-N,N-diethyltryptamine, reference compound], in experiment [1], the “Dissociation rate from the 5-HT2A receptor, fold faster than LSD” value is listed as roughly 100 fold.
With `C[C@]12C[C@H](O)[C@H]3[C@@H](CCC4=CC(=O)CC[C@@]43C)[C@@H]1CC[C@@H]2C(=O)CO` [CORT, corticosterone, reference compound], the “Dendritic spine density, layer 2/3 mPFC (Table S1, matches Fig. 4N)” value in experiment [2] is recorded as 8.570 ± 0.4350. In addition, the “Sucrose preference post-CORT (Figure 6D)” value with C57BL/6J mice is on record as 0.5563 ± 0.08424.
For `CCN(CC)C(=O)[C@@H]1C=C2c3cccc4[nH]cc(c34)C[C@H]2N(C)C1` [LSD, lysergic acid diethylamide], the “Effect of ketanserin (10 μM) pretreatment on compound-induced dendritic spine density” value in experiment [3] was “blocks”. The Ki in experiment [4] was 170 nM; in experiment [5], 0.977 nM; in experiment [6], 9 nM; in experiment [7], 200 nM; in experiment [8], 670 nM; in experiment [9] it was 12 nM. The Ki is 273 nM in experiment [10], 38 nM in experiment [11] and 140 nM in experiment [12].

By Ki is commonly meant a dissociation constant, usually derived from enzyme kinetics or from competition with a known ligand.
